Columns and labels:
Assay in all cases: relative viability (nuclei count vs DMSO), 5 days (fraction); higher = more cells survive
[1] = compound: COc1cc2nc(N3CCCN(C)CC3)nc(NC3CCN(Cc4ccccc4)CC3)c2cc1OC + CCNC(=O)c1noc(-c2cc(C(C)C)c(O)cc2O)c1-c1ccc(CN2CCOCC2)cc1 [Luminespib] (partner 0.01 µM)
How it was run: (§1)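 Nuclei were stained with Hoechst during a one-step fixation (final 0.05% Triton X-100, 1% formaldehyde, 1 ug/ml Hoechst) carried out 5 days after dosing, then counted on 4× images. The cells, lung cancer lines in 1536-well plates, had been dosed by pin tool the day after seeding with one drug alone or a fixed anchor-drug dose plus five library-drug doses (not always all listed) in √10 steps. Relative viability is the nuclei count in treated wells divided by that in vehicle wells, and each value is the median of duplicate plates.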

[2] = compound: COc1cc2nc(N3CCCN(C)CC3)nc(NC3CCN(Cc4ccccc4)CC3)c2cc1OC + C[C@@H](Oc1cc(-c2cnn(C3CCNCC3)c2)cnc1N)c1c(Cl)ccc(F)c1Cl [Crizotinib] (partner 1 µM)
How it was run: as §1

[3] = compound: Cc1cc([C@@H](C)Nc2ccccc2C(=O)O)c2nc(N3CCOCC3)cc(=O)n2c1 [AZD6482] + COc1cccc2cc(-c3nc([C@H]4CC[C@H](C(=O)O)CC4)n4ncnc(N)c34)[nH]c12 [OSI-027] (partner 0.5 µM)
How it was run: as §1

[4] = compound: COc1cc2nc(N3CCCN(C)CC3)nc(NC3CCN(Cc4ccccc4)CC3)c2cc1OC + Nc1nc2[nH]cc(CCc3ccc(C(=O)N[C@@H](CCC(=O)O)C(=O)O)cc3)c2c(=O)[nH]1 [Pemetrexed] (partner 0.2 µM)
How it was run: as §1

Row | Cell Line | relative viability ([1]; first compound 0.2 µM) | relative viability ([1]; first compound 0.6325 µM) | relative viability ([1]; first compound 2 µM) | relative viability ([1]; first compound 6.325 µM) | relative viability ([2]; first compound 0.2 µM) | relative viability ([2]; first compound 0.6325 µM) | relative viability ([2]; first compound 2 µM) | relative viability ([2]; first compound 6.325 µM) | relative viability ([3]; first compound 0.08 µM) | relative viability ([3]; first compound 0.253 µM) | relative viability ([3]; first compound 0.8 µM) | relative viability ([3]; first compound 2.53 µM) | relative viability ([3]; first compound 8 µM) | relative viability ([4]; first compound 0.2 µM) | relative viability ([4]; first compound 0.6325 µM) | relative viability ([4]; first compound 2 µM) | relative viability ([4]; first compound 6.325 µM)
1 | NCI-H520 | 0.321 | 0.227 | 0.27 | 0.214 | 0.714 | 0.664 | 0.852 | 0.214 | 0.214 | 0.176 | 0.211 | 0.178 | 0.178 | 0.608 | 0.622 | 0.573 | 0.183
2 | NCI-H596 | 0.87 | 0.871 | 0.927 | 1.02 | 0.998 | 1.09 | 0.988 | 0.933 | 0.676 | 0.596 | 0.809 | 0.732 | 0.559 | 0.515 | 0.534 | 0.503 | 0.468
3 | NCI-H647 | 0.352 | 0.249 | 0.159 | 0.292 | 1.01 | 0.973 | 0.968 | 0.466 | 0.459 | 0.513 | 0.612 | 0.335 | 0.315 | 0.161 | 0.199 | 0.19 | 0.152
4 | NCI-H650 | 0.746 | 0.628 | 0.783 | 0.661 | 0.734 | 0.589 | 0.841 | 0.733 | 0.588 | – | 0.457 | 0.305 | 0.356 | 0.935 | 0.877 | 0.924 | 0.92
5 | NCI-H661 | 0.903 | 0.894 | 0.911 | 0.957 | 0.995 | 0.9 | 1.24 | 0.922 | 0.651 | 0.722 | 0.649 | 0.4 | 0.435 | 0.882 | 0.894 | 0.904 | 0.923
6 | NCI-H838 | 0.378 | 0.324 | 0.296 | 0.294 | 0.81 | 0.878 | 0.873 | 0.828 | 0.334 | 0.378 | 0.355 | 0.199 | 0.27 | 0.259 | 0.263 | 0.293 | 0.243
7 | NCI-H1355 | 0.715 | 0.693 | 0.734 | 0.773 | 1.08 | 1.17 | 1.01 | 0.993 | 0.287 | 0.323 | 0.384 | 0.256 | 0.298 | 1.06 | 1.03 | 1.01 | 0.945
8 | NCI-H1437 | 1.12 | 1.06 | 1.21 | 0.965 | 0.901 | 0.866 | 1.02 | 0.879 | 0.983 | 0.855 | 1.07 | 0.471 | 0.567 | 0.279 | 0.293 | 0.36 | 0.324
9 | NCI-H1563 | 0.544 | 0.515 | 0.506 | 0.507 | 0.829 | 0.853 | 0.809 | 0.794 | 0.771 | 0.749 | 0.738 | 0.7 | 0.619 | 0.646 | 0.9 | 0.879 | 0.896
10 | NCI-H1650 | 0.181 | 0.19 | 0.197 | 0.174 | 1 | 0.903 | 1.2 | 0.892 | 0.536 | 0.636 | 0.569 | 0.347 | 0.447 | 0.389 | 0.407 | 0.441 | 0.313
11 | NCI-H1651 | 0.905 | 0.846 | 1.14 | 0.804 | 0.862 | 0.849 | 0.896 | 0.859 | 0.601 | 0.59 | 0.655 | 0.567 | 0.539 | 0.623 | 0.598 | 0.597 | 0.624
12 | NCI-H1666 | 0.973 | 0.997 | 1.11 | 0.947 | 0.969 | 0.958 | 0.981 | 0.886 | 0.684 | 0.765 | 0.918 | 0.66 | 0.8 | 0.885 | 0.785 | 0.766 | 0.872
13 | NCI-H1734 | 0.182 | 0.194 | 0.183 | 0.172 | 0.66 | 0.602 | 0.687 | 0.661 | 0.46 | 0.509 | 0.542 | 0.362 | 0.387 | 0.405 | 0.414 | 0.401 | 0.424
14 | NCI-H1755 | 0.44 | 0.536 | 0.406 | 0.478 | 0.868 | 0.792 | 0.919 | 0.814 | 0.605 | 0.595 | 0.662 | 0.486 | 0.494 | 0.459 | 0.415 | 0.414 | 0.368
15 | NCI-H1792 | – | 0.377 | 0.419 | 0.721 | 0.994 | 1.04 | 0.975 | 1.08 | 0.662 | 0.677 | 0.73 | 0.511 | 0.406 | 0.74 | 0.826 | 0.985 | 0.752
16 | NCI-H1915 | 0.762 | 0.731 | 0.794 | 0.893 | 0.909 | 0.825 | 0.947 | 0.866 | 0.575 | 0.57 | 0.689 | 0.505 | 0.595 | 0.48 | 0.442 | 0.503 | 0.463
17 | NCI-H1944 | 0.829 | 0.668 | 0.863 | 0.661 | 1.12 | 1.07 | – | 1.17 | 0.389 | 0.417 | 0.428 | 0.249 | 0.301 | 0.598 | 0.684 | 0.566 | 0.587
18 | NCI-H1975 | 0.159 | 0.212 | 0.21 | 0.264 | 1.06 | 0.933 | 1.07 | 0.95 | 0.631 | 0.616 | 0.779 | 0.495 | 0.427 | 0.289 | 0.301 | 0.309 | 0.267

Source: the supplement of paper PMC10307832
